Values quoted from earlier work as cited in patent US4451566A, “Methods and apparatus for enzymatically producing ethanol” (priority 1981, dated 1984).

Test system: Glucokinase (2.7.1.2), present in liver
Settings: read-out: KM for d-glucose, phosphorylation of d-glucose with ATP as phosphate donor

OC[C@H]1OC(O)[C@H](O)[C@@H](O)[C@@H]1O (stereo partly drawn) [d-glucose]
Km: 100 mM
